Data from patent US9067938B2, “Pyrazolopyridinone derivatives as LPA receptor antagonists” (Merck Patent GmbH, priority 2010, dated 2015).

Target: LPA2 receptor (Homo sapiens, UniProt Q9HBW0)
Assay: LPA2R-calciumflux assay
Type: cell-based
Conditions: U2OS cells recombinant expressing LPA2R; LPA-induced intracellular calcium signal (FLIPR Tetra); 10 concentrations from 30 uM to 1 nM, 1% DMSO
Text: Description of the LPA2R Assay
Cell Cultivation/Propagation
LPA2R-calciumflux Assay Protocol
The assay detects intra cellular calcium which is generated by cells upon activation of the LPA2 receptor by its ligand LPA. This transient calcium mobilisation can be monitored using a commercial calcium detection kit (e.g. from Molecular Devices). The main component of such a kit is a dye, which becomes fluorescent when calcium is present—a transient fluorescence signal after laddition of a ligand to a test well are the result. Readers like the FLIPR (from Molecular Devices) can be used to monitor such transient “Ca-flux” signals.
The signals are calculated according to peak maximum minus base line. Compounds which are antogonists of LPA lead to a decreased mobilisation of intracellular calcium and thus to a lower signal. The assay is performed in microplates (384 wells per plate).
The assay itself is run according to the following procedure: • 50 uL seed cells (10000 cells/well in DMEM buffer) • Incubate 24 h at 37° C., 10% CO2 • aspirate medium • 50 uL add calcium dye 1×HBSS/HEPES buffer • incubate 1 h at 37° C. (“loading”) • equilibrate 10 min at RT • 5 uL add compounds in HEPES buffer • shake 10 sec. @ 1000 rpm • incubate 15 min at RT • 20 uL add LPA (in the FLIPR Tetra) in KREBS-Puffer/BSA & measurement
The cells are seeded in DMEM buffer (DMEM, 10% FCS, 10 mM HEPES, 1% Pen/Strep).
Dye loading is done in HBSS/HEPES buffer (100 mL 10×HBSS+20 mL 1M HEPES+880 mL water, pH 7.4)
The LPA is added in Krebs/BSA buffer (120 mM NaCl, 5 mM KCl, 0.62 mM MgSO4, 1.8 mM CaCl2, 10 mM HEPES, 6 mM D(+)-Glucose, 0.2% BSA, pH 7.4).
The compounds are pre-diluted in HEPES buffer (20 mM, pH 7.4), whereby the final DMSO content in the assay is kept at 1%. The compounds are pre-diluted in order to generate dose response series on the microplates. The dose response series consist of 10 concentrations for each compound from 30 uM final to 1 nM final. From all compound wells the resulting signals are referred to control wells (located on each plate besides the compound wells) in terms of % activity.
[formula] From these % activity values—along with the corresponding compound concentrations—IC50 values are fitted for each compound using standard fitting programs such as Graphpad Prism. Here the method “log(inhibitor) vs. response—Variable slope” is used. Reader Settings (FLIPR Tetra) • ExcWLength:470—495 • Em.Wlength: 515—575 • Gain: 50 • Exp. Time: 0,4 • Exc.Intensity: 80 • READ with TF • First read interval: 1,00 s • Number of first reads: 240 • Reads before dispense: 10 • Second read interval: 1,00 s • Number of second reads: 0 • Save Images No

Sequence of LPA2 receptor (Q9HBW0 whole entry): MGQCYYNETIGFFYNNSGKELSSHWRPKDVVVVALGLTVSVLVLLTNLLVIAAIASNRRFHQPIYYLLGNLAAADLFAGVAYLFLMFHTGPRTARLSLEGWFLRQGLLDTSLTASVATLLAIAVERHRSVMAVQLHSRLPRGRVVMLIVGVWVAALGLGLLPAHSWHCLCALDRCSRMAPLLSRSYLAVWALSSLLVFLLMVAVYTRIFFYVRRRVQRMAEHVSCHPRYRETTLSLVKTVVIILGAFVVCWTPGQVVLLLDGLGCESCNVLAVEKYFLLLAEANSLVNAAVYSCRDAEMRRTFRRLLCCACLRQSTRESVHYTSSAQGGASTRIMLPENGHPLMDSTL

## O=C1CC(O)(C(F)(F)F)c2c(-c3cccc(F)c3)n[nH]c2N1 (centres unmarked) [Compound 1, 3-(3-Fluoro-phenyl)-4-hydroxy-4-trifluoromethyl-1,4,5,7-tetrahydro-pyrazolo[3,4-b]pyridin-6-one]
  IC50: < 1 µM

## O=C1CC(O)(C(F)(F)F)c2c(-c3ccccc3)n[nH]c2N1 (centres unmarked) [Compound 2, 4-Hydroxy-3-phenyl-4-trifluoromethyl-1,4,5,7-tetrahydro-pyrazolo[3,4-b]pyridin-6-one]
  IC50: < 1 µM

## COc1ccc(-c2n[nH]c3c2C(O)(C(F)(F)F)CC(=O)N3)cc1 (centres unmarked) [Compound 3, 4-Hydroxy-3-(4-methoxy-phenyl)-4-trifluoromethyl-1,4,5,7-tetrahydro-pyrazolo[3,4-b]pyridin-6-one]
  IC50: < 1 µM

## Cn1nc(-c2ccccc2)c2c1NC(=O)CC2(O)C(F)(F)F (centres unmarked) [Compound 4, 4-Hydroxy-1-methyl-3-phenyl-4-trifluoromethyl-1,4,5,7-tetrahydro-pyrazolo[3,4-b]pyridin-6-one]
  IC50: > 10 µM

## O=C1CC(O)(C(F)(F)F)c2c(-c3ccc(Cl)cc3)n[nH]c2N1 (centres unmarked) [Compound 5, 3-(4-Chloro-phenyl)-4-hydroxy-4-trifluoromethyl-1,4,5,7-tetrahydro-pyrazolo[3,4-b]pyridin-6-one]
  IC50: 1 to 10 µM

## Cc1ccc(-c2n[nH]c3c2C(O)(C(F)(F)F)CC(=O)N3)cc1 (centres unmarked) [Compound 6, 4-Hydroxy-3-p-tolyl-4-trifluoromethyl-1,4,5,7-tetrahydro-pyrazolo[3,4-b]pyridin-6-one]
  IC50: < 1 µM

## Cn1nc(-c2cccs2)c2c1NC(=O)CC2(O)C(F)(F)F (centres unmarked) [Compound 7, 4-Hydroxy-1-methyl-3-thiophen-2-yl-4-trifluoromethyl-1,4,5,7-tetrahydro-pyrazolo[3,4-b]pyridin-6-one]
  IC50: > 10 µM

## O=C1CC(O)(C(F)(F)F)c2c(-c3cccs3)n[nH]c2N1 (centres unmarked) [Compound 8, 4-Hydroxy-3-thiophen-2-yl-4-trifluoromethyl-1,4,5,7-tetrahydro-pyrazolo[3,4-b]pyridin-6-one]
  IC50: < 1 µM

## COc1cc(OC)cc(-c2n[nH]c3c2C(O)(C(F)(F)F)CC(=O)N3)c1 (centres unmarked) [Compound 9, 3-(3,5-Dimethoxy-phenyl)-4-hydroxy-4-trifluoromethyl-1,4,5,7-tetrahydro-pyrazolo[3,4-b]pyridin-6-one]
  IC50: < 1 µM

## O=C1C[C@@](O)(C(F)(F)F)c2c(-c3ccccc3)n[nH]c2N1 [Compound 10, (−)-4-Hydroxy-3-phenyl-4-trifluoromethyl-1,4,5,7-tetrahydro-pyrazolo[3,4-b]pyridin-6-one]
  IC50: < 1 µM

## O=C1C[C@](O)(C(F)(F)F)c2c(-c3ccccc3)n[nH]c2N1 [Compound 11, (+)-4-Hydroxy-3-phenyl-4-trifluoromethyl-1,4,5,7-tetrahydro-pyrazolo[3,4-b]pyridin-6-one]
  IC50: > 10 µM

## O=C1CC(O)(C(F)(F)F)c2c(-c3ccc(Br)cc3)n[nH]c2N1 (centres unmarked) [Compound 12, 3-(4-Bromo-phenyl)-4-hydroxy-4-trifluoromethyl-1,4,5,7-tetrahydro-pyrazolo[3,4-b]pyridin-6-one]
  IC50: > 10 µM

## O=C1CC(O)(C(F)(F)F)c2c(-c3cccc(Br)c3)n[nH]c2N1 (centres unmarked) [Compound 13, 3-(3-Bromo-phenyl)-4-hydroxy-4-trifluoromethyl-1,4,5,7-tetrahydro-pyrazolo[3,4-b]pyridin-6-one]
  IC50: < 1 µM

## O=C1CC(O)(C(F)(F)F)c2c(-c3cccc(Cl)c3)n[nH]c2N1 (centres unmarked) [Compound 14, 3-(3-Chloro-phenyl)-4-hydroxy-4-trifluoromethyl-1,4,5,7-tetrahydro-pyrazolo[3,4-b]pyridin-6-one]
  IC50: < 1 µM

## O=C1CC(O)(C(F)(F)F)c2c(-c3cccc(C(F)(F)F)c3)n[nH]c2N1 (centres unmarked) [Compound 15, 4-Hydroxy-4-trifluoromethyl-3-(3-trifluoromethyl-phenyl)-1,4,5,7-tetrahydro-pyrazolo[3,4-b]pyridin-6-one]
  IC50: < 1 µM

## O=C1CC(O)(C(F)(F)F)c2c(C3CC3)n[nH]c2N1 (centres unmarked) [Compound 16, 3-Cyclopropyl-4-hydroxy-4-trifluoromethyl-1,4,5,7-tetrahydro-pyrazolo[3,4-b]pyridin-6-one]
  IC50: > 10 µM

## O=C1CC(O)(C(F)(F)F)c2c(-c3ccc(F)cc3)n[nH]c2N1 (centres unmarked) [Compound 17, 3-(4-Fluoro-phenyl)-4-hydroxy-4-trifluoromethyl-1,4,5,7-tetrahydro-pyrazolo[3,4-b]pyridin-6-one]
  IC50: < 1 µM

## Cn1nc(-c2ccc(Cl)cc2)c2c1NC(=O)CC2(O)C(F)(F)F (centres unmarked) [Compound 18, 3(4-Chloro-phenyl)-4-hydroxy-1-methyl-4-trifluoromethyl-1,4,5,7-tetrahydro-pyrazolo[3,4-b]pyridin-6-one]
  IC50: > 10 µM

## O=C1CC(O)(C(F)(F)F)c2c(-c3ccccc3)nn(-c3ccccc3)c2N1 (centres unmarked) [Compound 19, 4-Hydroxy-1,3-diphenyl-4-trifluoromethyl-1,4,5,7-tetrahydro-pyrazolo[3,4-b]pyridin-6-one]
  IC50: > 10 µM

## O=C1C[C@@](O)(C(F)(F)F)c2c(-c3cccc(F)c3)n[nH]c2N1 [Compound 20, (−)-3-(3-Fluoro-phenyl)-4-hydroxy-4-trifluoromethyl-1,4,5,7-tetrahydro-pyrazolo[3,4-b]pyridin-6-one]
  IC50: < 1 µM

## O=C1C[C@](O)(C(F)(F)F)c2c(-c3cccc(F)c3)n[nH]c2N1 [Compound 21, (+)-3-(3-Fluoro-phenyl)-4-hydroxy-4-trifluoromethyl-1,4,5,7-tetrahydro-pyrazolo[3,4-b]pyridin-6-one]
  IC50: > 10 µM

## O=C1CC(O)(C(F)(F)F)c2c(-c3ccncc3)n[nH]c2N1 (centres unmarked) [Compound 22, 4-Hydroxy-3-pyridin-4-yl-4-trifluoromethyl-1,4,5,7-tetrahydro-pyrazolo[3,4-b]pyridin-6-one]
  IC50: < 1 µM

## CC1C(=O)Nc2[nH]nc(-c3ccccc3)c2C1(O)C(F)(F)F (centres unmarked) [Compound 24, 4-Hydroxy-5-methyl-3-phenyl-4-trifluoromethyl-1,4,5,7-tetrahydro-pyrazolo[3,4-b]pyridin-6-one]
  IC50: 1 to 10 µM

## CCC1C(=O)Nc2[nH]nc(-c3ccccc3)c2C1(O)C(F)(F)F (centres unmarked) [Compound 25, 4-Hydroxy-5-ethyl-3-phenyl-4-trifluoromethyl-1,4,5,7-tetrahydro-pyrazolo[3,4-b]pyridin-6-one]
  IC50: > 10 µM

## O=C1Nc2[nH]nc(-c3ccccc3)c2C(O)(C(F)(F)F)C1CCO (centres unmarked) [Compound 26, 4-Hydroxy-5-(2-hydroxy-ethyl)-3-phenyl-4-trifluoromethyl-1,4,5,7-tetrahydro-pyrazolo[3,4-b]pyridin-6-one]
  IC50: > 10 µM

## COC1C(=O)Nc2[nH]nc(-c3ccccc3)c2C1(O)C(F)(F)F (centres unmarked) [Compound 27, 4-Hydroxy-5-methoxy-3-phenyl-4-trifluoromethyl-1,4,5,7-tetrahydro-pyrazolo[3,4-b]pyridin-6-one]
  IC50: > 10 µM

## O=C1CC(O)(C(F)(F)F)c2c(Cc3ccccc3)n[nH]c2N1 (centres unmarked) [Compound 28, 3-Benzyl-4-hydroxy-4-trifluoromethyl-1,4,5,7-tetrahydro-pyrazolo[3,4-b]pyridin-6-one]
  IC50: > 10 µM

## O=C1CC(O)(C(F)(F)F)c2c(-c3c[nH]c4ccccc34)n[nH]c2N1 (centres unmarked) [Compound 29, 4-Hydroxy-3-(1H-indol-3-yl)-4-trifluoromethyl-1,4,5,7-tetrahydro-pyrazolo[3,4-b]pyridin-6-one]
  IC50: > 10 µM

## O=C1CC(O)(C(F)(F)F)c2c(-c3ccco3)n[nH]c2N1 (centres unmarked) [Compound 30, 3-Furan-2-yl-4-hydroxy-4-trifluoromethyl-1,4,5,7-tetrahydro-pyrazolo[3,4-b]pyridin-6-one]
  IC50: > 10 µM
